Results on eleven compounds are retold here after paper PMC4642645, “Oxacillin sensitization of methicillin-resistant Staphylococcus aureus and methicillin-resistant Staphylococcus pseudintermedius by antisense peptide nucleic acids in vitro” (BMC Microbiology, 2015).

Values joined by “and” are separate entries in the source; they are usually repeats but may differ in a detail not shown here. Equal entries are not always repeated. Where only a bound is given, the exact number is not on record here.

In assay [1] the test system is HH-1. In words: Oxacillin MIC and sensitization broth growth assay (broth microdilution, CLSI). In kind it is cell-based, Staphylococcus pseudintermedius (MRSP). The following applies: for Oxacillin MIC with anti-mecA PNA treatment: HH-1, 2.5 μM PNA; for Sensitization to oxacillin in broth microdilution assays: HH-1, PNAs with EJH-L1 or HIV-1 Tat carrier, data not shown. The procedure:
(§1) The MRSA strain NCTC 13142 from Public Health England Culture Collections is a UK epidemic strain type EMRSA-15, SCCmec Type IV, and the MRSP strain HH-1 was isolated from a canine skin infection and is ST71, SCCmecII-III [19]. Bacteria were cultured on Columbia base agar (Oxoid, Basingstoke, UK) supplemented with 5 % horse blood (Oxoid) and 6 μg/ml oxacillin (Sigma Aldrich, UK) at 35 °C for 20 h. Overnight broth cultures were prepared from single bacterial colonies inoculated in 3 ml Mueller Hinton broth (MHB, Oxoid) supplemented with 6 μg/ml oxacillin and incubated at 35 °C for 20 h at 180 rpm on a rotary shaker.
(§2) The MIC of oxacillin was determined by broth microdilution according to CLSI guidelines. Briefly, overnight broth cultures of MRSA and MRSP were standardized to OD625 = 0.08–0.09 (equivalent to 10^8 CFU/ml) in MHB and further diluted 100-fold to obtain 10^6 CFU/ml. The bacterial suspension was then inoculated at 50 μl per well to a final concentration of 5 × 10^5 CFU/ml. Two-fold serial dilutions of oxacillin (2–512 μg/ml) were added to bacterial cultures at 50 μl per well to a final volume of 100 μl per well, and 96 well plates were incubated at 35 °C for 24 h. MICs were visually scored.
(§3) Overnight broth cultures were adjusted to 5 × 10^5 CFU/ml per well of a 96 well plate as described above and used either in a broth growth assay or a viable count assay. The broth growth assay was used as an initial screen of PNA efficacy because it was simple to carry out. […] Anti-mecA PNAs were added at either 2.5 or 5 μM. After incubation at 35 °C for 24 h, the MIC of oxacillin in combination with the PNAs in broth cultures were scored visually as recommended by CLSI guidelines.
For orientation: Dilution methods test growth across graded concentrations, often in twofold steps.

Assay [2] has as its system NCTC 13142. The assay is described as above. The conditions noted are these: for Oxacillin MIC with anti-mecA PNA treatment: NCTC 13142, 5 μM PNA; for Sensitization to oxacillin in broth microdilution assays: NCTC 13142, PNAs with EJH-L1 or HIV-1 Tat carrier, data not shown. In kind it is cell-based, Staphylococcus aureus (MRSA). The procedure:
as §1, §2, §3

For assay [3], the system named is mecA mRNA. In words: mecA mRNA level by RT-qPCR. It is filed as cell-based, Staphylococcus pseudintermedius (MRSP) HH-1. The following applies: HH-1, 2.5 μM PNA, no oxacillin, normalized to proC and pyk, average, n = 3. The procedure: (§4) Growth of cultures in a 96 well plate was monitored by reading the optical density at 550 nm every 5 min, after shaking for 5 s in a microplate reader (Spectramax 340PC, […]). Cultures were harvested when the untreated control culture increased in OD550 ≈ 0.1. Cultures with the same PNA treatment but in different wells across the 96 well plate were pooled for total RNA extraction and DNase I treatment (Ribopure™ Bacteria kit, Life Technologies). RNA was checked for gDNA contamination by qPCR using gyrA primers (Additional file 1: Table S1) and SsoFast™ EvaGreen® Supermix (Bio-Rad) before cDNA synthesis using 50 ng RNA and iScript™ Reverse Transcription Supermix (Bio-Rad). Samples of cDNA were diluted 10-fold and 4 μl used in each qPCR reaction. Non-template controls were included for each primer pair in each run, and technical duplicates for each sample were included in each run.
(§5) Primer pairs for qPCR were designed by Primer3 with a Tm of 60 °C and product sizes of 100–200 bp (Additional file 1: Table S1). […] Primer efficiencies were determined using 10-fold serial dilutions of cDNA (10 pg-1 μg). […]
Total RNA and cDNA were prepared as described above. Raw Cq values were analysed in qbase + (Biogazelle, Belgium) with user-defined primer efficiencies (Additional file 1: Table S1) and expression stabilities (M value) of each candidate reference gene fabD, gyrA, proC, pta, pyk, rho, sodA, and tpiA were calculated as the average pairwise variation for each gene with all other tested genes. […] Stepwise exclusion of the gene with the highest M value allowed ranking of the tested genes according to their expression stability, and from this the optimal number of reference genes was calculated. […] Relative mRNA levels were then calculated as induced normalized Cq/uninduced normalized Cq, and analysed with paired Student’s t-Test in Microsoft Excel.
(In qPCR the cycle at which signal appears reflects the starting amount.)

Assay [4] has as its system mecA mRNA. Put plainly: mecA mRNA level by RT-qPCR. In kind it is cell-based, Staphylococcus aureus (MRSA) NCTC 13142. How it is done:
as §4, with “Non-template controls were included for each primer pair in each run, and technical duplicates for each sample were included in each run.” left out
as §5
Total RNA and cDNA were prepared as described above. Raw Cq values were analysed in qbase + (Biogazelle, Belgium) with user-defined primer efficiencies (Additional file 1: Table S1) and expression stabilities (M value) of each candidate reference gene fabD, gyrA, proC, pta, pyk, rho, sodA, and tpiA were calculated as the average pairwise variation for each gene with all other tested genes. […]

The subject of assay [5] is HH-1. In words: Oxacillin sensitization viable count assay (CFU on oxacillin plates). In kind it is cell-based, Staphylococcus pseudintermedius (MRSP). The following applies: for Sensitization to oxacillin (CFU reduction), result in words: HH-1, A73 and scrA 1, 2.5, 5 μM, Z46 0.5, 1, 2.5 μM, 6 h, plated on 16 μg/ml oxacillin, n = 3. The procedure: (§6) The viable count assay is more sensitive than the broth assay and was used to assess the effects of PNAs that performed well in the initial screen described above. In the viable count assay, 5 × 10^5 CFU/ml per well of culture was treated either with 2.5, 5 and 7.5 μM of PNA for NCTC 13142, or 1, 2.5 and 5 μM of PNA for HH-1 in MHB at 35 °C for 6 h. […] Agar plates were incubated at 35 °C for 24 h, and dilutions resulting in 30–300 colonies per plate were used to determine the viable count. Experimental repeats were carried out on separate days, and reductions in CFU of treated cultures were normalized to CFU of the untreated control culture on the day. Statistical analysis of CFU reductions was carried out with the paired Student’s t-Test in Microsoft Excel.

For assay [6], the system named is NCTC 13142. The description is as above. The following applies: for Sensitization to oxacillin (CFU reduction), result in words: NCTC 13142, PNA 2.5, 5, 7.5 μM (Z46: 7.5 μM), 6 h, plated on 16 μg/ml oxacillin, n = 3. It is filed as cell-based, Staphylococcus aureus (MRSA). How it is done:
as §6

For assay [7], the system named is NCTC 13142. In words: Growth inhibition assay (OD550 growth curves). The conditions noted are these: NCTC 13142, MHB with 6 μg/ml oxacillin, PNA 0–7.5 μM, 35 °C, 6 h, OD550, n = 3. In kind it is cell-based, Staphylococcus aureus (MRSA). How it is done:
Anti-ftsZ PNAs were tested for effects on growth. Overnight MHB cultures were adjusted to 5 × 10^5 CFU/ml per well of a 96 well plate in MHB supplemented with 6 μg/ml oxacillin as described above. Anti-ftsZ PNA was added to final concentrations of 0, 1, 2.5, 5, 7.5 μM and incubated in a microplate reader (Spectramax 340PC, Molecular Devices) at 35 °C for 6 h. The optical density of the cultures was monitored at 550 nm with readings every 5 min after shaking for 5 s.

Setting [8] is: MHB, 35 °C, 24 h, scored visually, n=2.

As a reminder, the MIC is the least concentration at which growth counts as inhibited. `Cc1onc(-c2ccccc2)c1C(=O)N[C@@H]1C(=O)N2[C@@H]1SC(C)(C)[C@@H]2C(=O)O` [Oxacillin, oxacillin]: the “Oxacillin MIC” value is 512 µg/mL in assay [1] (HH-1, 0 μM PNA, MHB, 35 °C, 24 h, scored visually, n=2); 256 µg/mL and 512 µg/mL in assay [2] (NCTC 13142, 0 μM PNA, MHB, 35 °C, 24 h, scored visually, n=2). Also, the MIC in assay [1] (Staphylococcus pseudintermedius, 24 h, HH-1, 0 μM PNA, MHB, 35 °C, scored visually, n=2) is no less than 256 µg/mL; in assay [2] (Staphylococcus aureus, NCTC13142, 24 h, NCTC 13142, 0 μM PNA, MHB, 35 °C, 24 h, scored visually, n=2), no less than 256 µg/mL.

For the compound “KFFKFFKFFK-O-caatatcctc-CONH2 [A101, anti-mecA PNA (−10 to −1) conjugated to cell-penetrating peptide …]”, the figures for the “Oxacillin MIC with anti-mecA PNA treatment” value in assay [1] (setting [8]) and in assay [2] (setting [8]) were 256 µg/mL and 512 µg/mL, respectively.

Take “KFFKFFKFFK-eg1-atcaatatcc-CONH2 [A82, anti-mecA PNA (−8 to +2) conjugated to cell-penetrating peptide …]”: the “Oxacillin MIC with anti-mecA PNA treatment” value in assay [1] (setting [8]) turned out to be 256 µg/mL; in assay [2] (setting [8]), 128 µg/mL.

Turning to “KFFKFFKFFK-O-catcaatatc-CONH2 [A73, anti-mecA PNA (−7 to +3) conjugated to cell-penetrating peptide …]”, the “Oxacillin MIC with anti-mecA PNA treatment” value is 64 µg/mL in assay [1] (setting [8]) and 128 µg/mL in assay [2] (setting [8]). For the same compound, the “Sensitization of broth cultures to oxacillin” value in assay [1] (HH-1, 2.5–5 μM PNA, initial screening) is given as 4–8 fold; in assay [2] (NCTC 13142, 2.5–5 μM PNA, initial screening), 4–8 fold. The “Reduction of mecA transcripts” value is recorded as 40% in assay [3]; “reduced” in assay [3] (listed as Anti-mecA PNA); 38% in assay [4] (NCTC 13142, 5 μM PNA, no oxacillin, normalized to pta and gyrA, average, n = 3). Further, the “mecA mRNA, result in words” value in assay [4] (MRSA, 7.5 μM PNA, p < 0.05) was “reduced”. In addition, the “MRSP cells killed by oxacillin” value in assay [5] (2.5 μM PNA, 6 h at 35 °C, plated on MH agar with 16 μg/ml oxacillin, relative to untreated control) stood at 92%. Also, the “Sensitization to oxacillin (CFU reduction), result in words” value in assay [5] and in assay [6] was “significantly sensitized” throughout. Moreover, in assay [6] (7.5 μM PNA, 6 h at 35 °C, plated on MH agar with 16 μg/ml oxacillin, relative to untreated control), the “MRSA cells killed by oxacillin” value stood at 66%.

As for “YGRKKRRQRRR-O-catcaatatc-CONH2 [A73-Tat]”, the “Sensitization to oxacillin in broth microdilution assays” value in assay [1] and in assay [2] was 2 fold each time.

Regarding “KFFKFFKFFK-eg1-TTCTAACATT-NH2 [Z19, anti-ftsZ PNA (−1 to +9) conjugated to the (KFF)3K peptide]”, the “Concentration that inhibited growth” value in assay [7] was “ineffective”.

On to “MINWKLRLKNK-O-cactataatc-CONH2 [scrA-EJH, scrambled PNA conjugated to EJH-L1 peptide (…)]”, for which the “Sensitization to oxacillin in broth microdilution assays” value in assay [1] and in assay [2] was “did not have an effect” throughout.

As to KFFKFFKFFK-O-cactataatc-CONH2 [scrA], the “Reduction of mecA transcripts” value in assay [3] was “did not have a significant effect”. The “Sensitization to oxacillin (CFU reduction), result in words” value in assay [5] is recorded as “significant sensitization”; in assay [6], “did not have an effect”.

For the compound “KFFKFFKFFK-eg1-ttcatcaata-CONH2 [A55, anti-mecA PNA (−5 to +5) conjugated to cell-penetrating peptide …]”, the “Oxacillin MIC with anti-mecA PNA treatment” value in assay [1] (setting [8]) worked out at 512 µg/mL; in assay [2] (setting [8]), 256 µg/mL.

On to “YGRKKRRQRRR-O-cactataatc-CONH2 [scrA-Tat, scrambled PNA conjugated to HIV 1-Tat peptide (…)]”, for which the “Sensitization to oxacillin in broth microdilution assays” value in assay [1] and in assay [2] was “did not have an effect” throughout.

As to “MINWKLRLKNK-O-catcaatatc-CONH2 [A73-EJH]”, the “Sensitization to oxacillin in broth microdilution assays” value in assay [1] and in assay [2] was 2 fold throughout.
